# Reference: ChEMBL document CHEMBL1649076, “Discovery of 5-chloro-N2-[(1S)-1-(5-fluoropyrimidin-2-yl)ethyl]-N4-(5-methyl-1H-pyrazol-3-yl)pyrimidine-2,4-diamine (AZD1480) as a novel inhibitor of the Jak/Stat pathway” (J Med Chem, 2011)
# Legend:
# [1] = target: T1, Tyrosine-protein kinase JAK2 (Homo sapiens, UniProt O60674); experiment: Inhibition of JAK2 using Km ATP concentration
# [2] = target: T1, Tyrosine-protein kinase JAK2; experiment: Inhibition of JAK2 using 5 mM of ATP
# [3] = target: T2, Tyrosine-protein kinase JAK3 (Homo sapiens, UniProt P52333); experiment: Inhibition of JAK3 using 5 mM of ATP
# T2 sequence (P52333 whole entry): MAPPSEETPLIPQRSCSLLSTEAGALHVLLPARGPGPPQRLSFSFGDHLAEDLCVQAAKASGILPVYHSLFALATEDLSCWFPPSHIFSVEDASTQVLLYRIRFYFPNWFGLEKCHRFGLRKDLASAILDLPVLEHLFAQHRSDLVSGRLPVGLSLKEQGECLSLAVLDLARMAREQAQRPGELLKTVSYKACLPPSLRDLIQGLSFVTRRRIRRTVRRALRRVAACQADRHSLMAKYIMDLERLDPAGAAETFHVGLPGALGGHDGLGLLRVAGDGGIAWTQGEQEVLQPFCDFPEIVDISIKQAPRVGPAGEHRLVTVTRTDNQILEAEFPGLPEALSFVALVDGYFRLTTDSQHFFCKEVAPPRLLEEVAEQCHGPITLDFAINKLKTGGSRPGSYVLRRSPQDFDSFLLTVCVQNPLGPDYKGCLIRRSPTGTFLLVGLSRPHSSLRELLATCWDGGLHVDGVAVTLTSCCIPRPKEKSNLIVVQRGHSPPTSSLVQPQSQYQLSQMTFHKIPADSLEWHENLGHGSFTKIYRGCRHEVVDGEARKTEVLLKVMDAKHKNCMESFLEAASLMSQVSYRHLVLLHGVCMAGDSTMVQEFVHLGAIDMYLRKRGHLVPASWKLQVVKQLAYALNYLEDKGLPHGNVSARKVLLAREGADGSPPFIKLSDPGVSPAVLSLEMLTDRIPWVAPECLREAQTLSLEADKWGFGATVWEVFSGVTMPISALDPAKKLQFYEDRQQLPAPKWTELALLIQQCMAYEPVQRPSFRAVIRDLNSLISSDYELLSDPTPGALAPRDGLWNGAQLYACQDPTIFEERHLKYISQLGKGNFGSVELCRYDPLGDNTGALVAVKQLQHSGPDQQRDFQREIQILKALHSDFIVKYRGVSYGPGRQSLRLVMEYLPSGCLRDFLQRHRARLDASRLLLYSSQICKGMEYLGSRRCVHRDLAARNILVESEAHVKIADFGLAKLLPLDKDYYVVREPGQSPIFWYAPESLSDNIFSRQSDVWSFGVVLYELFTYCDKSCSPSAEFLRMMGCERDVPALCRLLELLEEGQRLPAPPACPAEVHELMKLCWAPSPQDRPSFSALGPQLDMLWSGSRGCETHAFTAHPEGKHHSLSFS
# [4] = Growth inhibition of mouse BA/F3 cells expressing Tel-JAK2 kinase after 48 hrs by MTS assay; assay type: functional; settings: BaF3, 48 h
# Liver microsomes = experiment: Intrinsic clearance in rat liver microsomes assessed per mg of protein at 2 uM by LCMS/MS analysis; assay type: ADME, Microsome
# [5] = Oral bioavailability in Han Wistar rat at 10 mg/kg; assay type: ADME, organism-based; settings: in vivo
# [6] = Observed clearance in Han Wistar rat at 10 mg/kg, po and 3 mg/kg, iv; assay type: ADME, organism-based; settings: in vivo
# [7] = Volume of distribution at steady state in Han Wistar rat at 10 mg/kg, po and 3 mg/kg, iv; assay type: ADME, organism-based; settings: in vivo, read-out: Vdss
# [8] = Half life in Han Wistar rat at 10 mg/kg, po and 3 mg/kg, iv; assay type: ADME, organism-based; settings: in vivo
# [9] = Observed clearance in CD1 mouse at 3 mg/kg, iv; assay type: ADME, organism-based; set-up: dose 3 mg/kg, route intravenous; settings: in vivo
# [10] = Half life in CD1 mouse at 3 mg/kg, iv; assay type: ADME, organism-based; set-up: dose 3 mg/kg, route intravenous; settings: in vivo
# [11] = Half life in CD1 mouse at 10 mg/kg, po; assay type: ADME, organism-based; set-up: dose 10 mg/kg, route oral; settings: in vivo
# [12] = Volume of distribution at steady state in CD1 mouse at 3 mg/kg, iv; assay type: ADME, organism-based; set-up: dose 3 mg/kg, route intravenous; settings: in vivo, read-out: Vdss
# [13] = AUC (0 to 12 hrs) in CD1 mouse at 10 mg/kg, po; assay type: ADME, organism-based; set-up: time < 12 hr, dose 10 mg/kg, route oral; settings: plasma
# [14] = Oral bioavailability in CD1 mouse at 10 mg/kg; assay type: ADME, organism-based; settings: in vivo
# [15] = Observed clearance in Beagle dog at 2.5 mg/kg, iv; assay type: ADME, organism-based, Canis lupus familiaris; set-up: dose 2.5 mg/kg, route intravenous; settings: in vivo
# [16] = Half life in Beagle dog at 2.5 mg/kg, iv; assay type: ADME, organism-based, Canis lupus familiaris; set-up: dose 2.5 mg/kg, route intravenous; settings: in vivo
# [17] = Half life in Beagle dog at 10 mg/kg, po; assay type: ADME, organism-based, Canis lupus familiaris; set-up: dose 10 mg/kg, route oral; settings: in vivo
# [18] = Volume of distribution at steady state in Beagle dog at 2.5 mg/kg, iv; assay type: ADME, organism-based, Canis lupus familiaris; set-up: dose 2.5 mg/kg, route intravenous; settings: in vivo, read-out: Vdss
# [19] = AUC (0 to 12 hrs) in Beagle dog at 10 mg/kg, po; assay type: ADME, organism-based, Canis lupus familiaris; set-up: time < 12 hr, dose 10 mg/kg, route oral; settings: plasma
# [20] = Oral bioavailability in Beagle dog at 10 mg/kg; assay type: ADME, organism-based, Canis lupus familiaris; settings: in vivo
# [21] = Aqueous equilibrium solubility of the compound at pH 7.4 by HPLC-UV analysis; assay type: physicochemical
# HEL = experiment: Growth inhibition of human HEL cells expressing Jak2 V617F mutant after 48 hrs by MTS assay; assay type: functional
# [22] = Octanol-water partition coefficient, log D of the compound at pH 7.4 by shake flask method; assay type: physicochemical
# [23] = Growth inhibition of human UKE1 cells expressing Jak2 V617F mutant after 48 hrs by MTS assay; assay type: functional; settings: UKE1, 48 h
# [24] = target: High affinity nerve growth factor receptor (Homo sapiens, UniProt P04629); experiment: Inhibition of TrkA
# High affinity nerve growth factor receptor, sequence (P04629 whole entry): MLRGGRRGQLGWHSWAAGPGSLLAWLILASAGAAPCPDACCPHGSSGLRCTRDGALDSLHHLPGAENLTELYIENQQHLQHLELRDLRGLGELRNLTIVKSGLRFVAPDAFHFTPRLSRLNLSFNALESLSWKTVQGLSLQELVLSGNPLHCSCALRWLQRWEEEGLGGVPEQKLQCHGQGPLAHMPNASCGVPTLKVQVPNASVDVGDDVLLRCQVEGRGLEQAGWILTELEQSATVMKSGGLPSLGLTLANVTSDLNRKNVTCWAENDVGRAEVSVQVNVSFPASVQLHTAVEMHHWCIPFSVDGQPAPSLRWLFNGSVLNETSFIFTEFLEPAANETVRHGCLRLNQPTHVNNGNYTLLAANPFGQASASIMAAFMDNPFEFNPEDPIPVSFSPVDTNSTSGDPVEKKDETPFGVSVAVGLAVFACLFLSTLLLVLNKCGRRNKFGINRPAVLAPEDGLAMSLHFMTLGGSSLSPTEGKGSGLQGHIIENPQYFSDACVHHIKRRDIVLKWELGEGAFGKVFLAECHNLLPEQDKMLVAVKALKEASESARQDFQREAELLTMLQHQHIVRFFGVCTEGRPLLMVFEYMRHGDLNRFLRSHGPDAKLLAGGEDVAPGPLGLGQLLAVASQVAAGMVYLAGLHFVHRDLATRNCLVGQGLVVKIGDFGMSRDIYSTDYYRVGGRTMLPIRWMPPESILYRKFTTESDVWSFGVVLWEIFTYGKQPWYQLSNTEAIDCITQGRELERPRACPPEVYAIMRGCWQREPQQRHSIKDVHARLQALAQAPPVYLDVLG
# [25] = Growth inhibition of human SET2 cells expressing Jak2 V617F mutant after 48 hrs by MTS assay; assay type: functional; settings: SET-2, 48 h
# [26] = Growth inhibition of mouse BA/F3 cells expressing Tel-JAK3 kinase after 48 hrs by MTS assay; assay type: functional; settings: BaF3, 48 h
# [27] = Growth inhibition of mouse BA/F3 cells expressing Tel-JAK1 kinase after 48 hrs by MTS assay; assay type: functional; settings: BaF3, 48 h
# [28] = Growth inhibition of mouse BA/F3 cells expressing Tel-Tyk2 kinase after 48 hrs by MTS assay; assay type: functional; settings: BaF3, 48 h
# Mus musculus [29] = experiment: Antitumor activity against mouse BA/F3 cells expressing Tel-JAK2 xenografted in NCr mouse assessed as reduction of phosphorylated Stat5 level in spleen at 10 mg/kg, po after 8 hrs by Western blotting; assay type: functional, BaF3; set-up: scale not given: the % may be the effect or the level left
# Mus musculus [30] = experiment: Antitumor activity against mouse BA/F3 cells expressing Tel-JAK2 xenografted in NCr mouse assessed as reduction of phosphorylated Stat5 level in spleen at 5 mg/kg, po after 2 hrs by Western blotting; assay type: functional, BaF3; set-up: scale not given: the % may be the effect or the level left
# Mus musculus [31] = experiment: Antitumor activity against mouse BA/F3 cells expressing Tel-JAK2 xenografted in NCr mouse assessed as reduction of phosphorylated Stat5 level in spleen at 5 mg/kg, po after 6 hrs by Western blotting; assay type: functional, BaF3; set-up: scale not given: the % may be the effect or the level left
# [32] = Antitumor activity against mouse BA/F3 cells expressing Tel-JAK2-luc xenografted in NCr mouse assessed as reduction of bioluminescent signal at 50 mg/kg, po bid measured on day 9 post-tumor cell implantation relative to control; assay type: functional, BaF3
# [33] = Antitumor activity against mouse BA/F3 cells expressing Tel-JAK2-luc xenografted in NCr mouse assessed as reduction of bioluminescent signal at 30 mg/kg, po bid measured on day 9 post-tumor cell implantation relative to control; assay type: functional, BaF3
# [34] = Inhibition of Stat5 phosphorylation in mouse Ba/F3 cells expressing TEL-Jak2; assay type: cell-based; settings: BaF3
# T1 sequence (O60674 whole entry): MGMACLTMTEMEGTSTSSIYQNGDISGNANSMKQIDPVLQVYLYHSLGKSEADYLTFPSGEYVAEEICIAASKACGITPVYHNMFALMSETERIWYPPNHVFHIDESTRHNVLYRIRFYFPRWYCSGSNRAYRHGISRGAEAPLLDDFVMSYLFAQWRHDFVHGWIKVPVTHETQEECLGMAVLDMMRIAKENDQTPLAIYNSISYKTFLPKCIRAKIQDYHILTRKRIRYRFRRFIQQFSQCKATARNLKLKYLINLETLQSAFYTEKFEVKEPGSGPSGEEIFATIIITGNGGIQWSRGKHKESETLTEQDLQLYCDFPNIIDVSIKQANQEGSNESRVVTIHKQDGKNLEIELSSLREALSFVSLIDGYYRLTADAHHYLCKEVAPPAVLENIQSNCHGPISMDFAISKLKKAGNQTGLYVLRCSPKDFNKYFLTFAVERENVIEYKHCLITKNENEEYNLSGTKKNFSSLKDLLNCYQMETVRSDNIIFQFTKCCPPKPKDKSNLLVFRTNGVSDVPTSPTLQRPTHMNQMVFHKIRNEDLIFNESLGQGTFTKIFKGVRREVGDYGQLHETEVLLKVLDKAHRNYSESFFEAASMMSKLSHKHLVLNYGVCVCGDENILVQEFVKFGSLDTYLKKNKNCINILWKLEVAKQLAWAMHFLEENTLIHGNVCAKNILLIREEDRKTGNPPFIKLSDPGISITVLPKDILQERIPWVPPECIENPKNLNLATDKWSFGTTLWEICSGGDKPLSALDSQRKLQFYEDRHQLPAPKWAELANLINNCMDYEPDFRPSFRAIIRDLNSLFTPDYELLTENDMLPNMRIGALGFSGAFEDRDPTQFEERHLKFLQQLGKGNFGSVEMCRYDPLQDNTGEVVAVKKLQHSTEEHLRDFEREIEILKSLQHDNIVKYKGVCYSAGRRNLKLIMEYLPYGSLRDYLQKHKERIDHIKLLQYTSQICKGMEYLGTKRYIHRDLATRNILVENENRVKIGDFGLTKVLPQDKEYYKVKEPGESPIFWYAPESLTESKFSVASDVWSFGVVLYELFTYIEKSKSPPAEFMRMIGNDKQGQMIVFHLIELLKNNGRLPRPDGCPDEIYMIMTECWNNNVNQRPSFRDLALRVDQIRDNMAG
smiles,measurement,setting,value
Cc1cc(Nc2nc(N[C@@H](C)c3ncc(F)cn3)ncc2Cl)n[nH]1 [AZD-1480],IC50,[1],< 3 nM
same,IC50,[2],58 nM
same,IC50,[3],1360 nM
same,GI50,[4],60 nM
same,clearance,Liver microsomes,11 µL/min/mg
same,bioavailability,[5],47%
same,clearance,[6],8.9 mL/min/kg
same,Vd,[7],3.6 L/kg
same,half-life,[8],4.7 h
same,clearance,[9],13.5 mL/min/kg
same,half-life,[10],1.5 h
same,half-life,[11],2 h
same,Vd,[12],1.1 L/kg
same,AUC(0-t) at 12 h,[13],57.6 µM·h
same,bioavailability,[14],100%
same,clearance,[15],2 mL/min/kg
same,half-life,[16],6.9 h
same,half-life,[17],8.5 h
same,Vd,[18],1 L/kg
same,AUC(0-t) at 12 h,[19],350 µM·h
same,bioavailability,[20],100%
same,solubility thermodynamic,[21],> 460 µM
same,GI50,HEL,390 nM
same,logD,[22],< 2.6
same,GI50,[23],54 nM
same,IC50,[24],3 nM
same,GI50,[25],16 nM
same,GI50,[26],2100 nM
same,GI50,[27],700 nM
same,GI50,[28],2000 nM
same,Activity,Mus musculus [29],>70%
same,Activity,Mus musculus [30],90%
same,Activity,Mus musculus [31],50%
same,Activity,[32],44
same,Activity,[33],9
same,IC50,[34],46 nM
